The values below come from patent US9856298B2 (priority 2011, dated 2018).

Converted amounts (≈) assume the structure as drawn. Read-outs that look alike come from different tables or passages of the source. Square brackets hold non-standard residues; d marks the D form. Primed or numbered codes have the meaning given here. Side chains are listed from the residue outwards. Peptide text beside a SMILES is read from it. * marks the point of attachment. Orn(α-tetramethylguanidino) = CN(C)C(=N[C@@H](CCCN)C(=O)*)N(C)C; Guan″ = guanidino group at the N-terminus, N=C(N)*; sPEG750 = PEG of 750 linked via acid group; Guan = N-guanidino (N-terminal), N=C(N)*; Hyp = O=C(O)[C@@H]1C[C@@H](O)CN1; Tle = CC(C)(C)[C@H](N)C(=O)O; Orn = NCCC[C@H](N)C(=O)O

In series [1] the test system is Escherichia coli strain BL21AI. Put plainly: Minimum inhibitory concentration in TSB in the presence of 25% mouse serum. The conditions noted are these: E. coli BL21AI, TSB with 25% mouse serum, 20 hours at 37° C. The class given is cell-based. Here is the method: (§1) To that end, the peptides were dissolved in water and diluted in a two-fold dilution series with 1% aqueous soybean medium (TSB) in sterile 96-well plates (Greiner Bio-One GmbH) from 128 μg/ml in twelve dilution steps to 62.5 ng/ml. Overnight cultures of Escherichia coli strain BL21AI were adjusted with 1% TSB to about […] colony forming units per ml. In each case 50 μl of peptide solution per well were then mixed with in each case 50 μl of the bacteria solution, in order to achieve a starting concentration of 4×10^5 bacteria per well. After incubation for 20 hours at 37° C., the absorption at 595 nm was determined (microplate reader, TECAN Trading AG).
In addition, the antibacterial activity was also determined in the presence of 25% mouse serum. To that end, the MIC values were determined as described above, but 25 μl of mouse serum were also added to each well before the incubation (25% final concentration).

Series [2] concerns Escherichia coli strain BL21AI. Put plainly: Minimum inhibitory concentration in 1% TSB. The class given is cell-based. The following applies: for MIC in TSB: E. coli BL21AI, 1% TSB, 20 hours at 37° C.; for Effect of peptide linker or remaining linker residues on the MIC: compared with the unmodified peptide. How it is done:
as §1

Series [3] in a line: Serum stability / release of peptide in pure mouse serum (100%) (RP-HPLC, MALDI-MS). The conditions noted are these: for remaining at 4 h, 15 µg/ml: mouse, pure (100%) mouse serum.
Procedure: (§2) 30 μl of a 1 mg/ml peptide solution were diluted with 120 μl of water and, after addition of 50 of serum, incubated at 37° C. for 0 hours, 0.5 hour, 1 hour, 2 hours or 4 hours. Alternatively, the peptide derivatives having a starting concentration of 3 mg/ml were diluted with serum to a final concentration of 15 μg/ml. According to the stability of the peptides, the samples were analysed at the times mentioned above or after 0 hours, 4 hours and 6 hours. The serum proteins were precipitated by addition of 50 μl of 15% TCA, and the supernatant was neutralised with 25 μl of 1 mol/l NaOH. The samples were made up to 250 μl with 5% B, 230 μl of the solution were transferred into a HPLC vial, and 220 μl were injected.
(§3) RP-HPLC analysis was carried out with a linear acetonitrile gradient (Biosolve BV, Valkenswaard, Netherlands) in the presence of 0.1% trifluoroacetic acid (TFA, UV grade, Fluka Chemie GmbH, Buchs, Switzerland) as ion-pair reagent. The fractions were co-crystallised with α-cyanohydroxycinnamic acid (Bruker Daltonik GmbH; Bremen, Germany) as matrix (4 mg/ml in 60% acetonitrile in 0.1% aqueous TFA) and analysed with a tandem mass spectrometer (MALDI-TOF/TOF-MS, 4700 Proteomics Analyzer; Applied Biosystems GmbH, Weiterstadt, Germany) in positive-ion reflector mode. The amount of intact peptides and their degradation products or metabolites could thus be identified and quantified at the individual times. 25% aqueous mouse serum, which was analysed in parallel for the same time intervals, was used as control.
The conditions of series [4]: mouse; for uncleaved peptide remaining after the indicated time (instead of half-life): serum, 6 h, 15 µg/ml.
Procedure: as §2, §3

As to `CC[C@H](C)[C@H](NC(=O)[C@H](Cc1ccc(O)cc1)NC(=O)[C@@H](NC(=O)[C@@H]1CCCN1C(=O)[C@H](CCCNC(=N)N)NC(=O)[C@H](CC(N)=O)NC(=O)[C@H](CC(N)=O)NC(=O)[C@H](CCCN)N=C(N(C)C)N(C)C)C(C)C)C(=O)N1CCC[C@H]1C(=O)N[C@@H](CCCNC(=N)N)C(=O)N1CCC[C@H]1C(=O)N[C@@H](CCCNC(=N)N)C(=O)N1CCC[C@H]1C(=O)N1CCC[C@H]1C(=O)N[C@@H](Cc1c[nH]cn1)C(=O)N1CCC[C@H]1C(=O)N[C@@H](CCCNC(=N)N)C(=O)N[C@@H](CC(C)C)C(N)=O` [Api 88, Guan-ONNRPVYIPRPRPPHPRL-NH2, reference compound] ({Orn(α-tetramethylguanidino)}-NNRPVYIPRPRPPHPRL-NH2), the “MIC in TSB/mouse serum” value in series [1] came out at 1.19 µM. In series [2], the “MIC in TSB” value was determined as 0.44 µM (≈ 1.01 µg/mL).
Turning to `CC[C@H](C)[C@H](NC(=O)[C@H](Cc1ccc(O)cc1)NC(=O)[C@@H](NC(=O)[C@@H]1CCCN1C(=O)[C@H](CCCNC(=N)N)NC(=O)[C@H](CC(N)=O)NC(=O)[C@H](CC(N)=O)NC(=O)[C@H](CCCN)N=C(N(C)C)N(C)C)C(C)C)C(=O)N1CCC[C@H]1C(=O)N[C@@H](CCCNC(=N)N)C(=O)N1CCC[C@H]1C(=O)N[C@@H](CCCNC(=N)N)C(=O)N1CCC[C@H]1C(=O)N1CCC[C@H]1C(=O)N[C@@H](Cc1c[nH]cn1)C(=O)N1CCC[C@H]1C(=O)N[C@@H](CCCN)C(=O)N[C@@H](CC(C)C)C(N)=O` [Api 134, Guan-ONNRPVYIPRPRPPHPOL-NH2, reference compound] ({Orn(α-tetramethylguanidino)}-NNRPVYIPRPRPPHP[Orn]L-NH2), in series [1], the “MIC in TSB/mouse serum” value was determined as 7.12 µM. In series [2], the “MIC in TSB” value stood at 1.78 µM (≈ 4 µg/mL).
Consider `CC[C@H](C)[C@H](NC(=O)[C@H](Cc1ccc(O)cc1)NC(=O)[C@@H](NC(=O)[C@@H]1CCCN1C(=O)[C@H](CCCNC(=N)N)NC(=O)[C@H](CCCNC(=O)CNC(=O)[C@@H](N)CO)NC(=O)[C@H](CC(N)=O)NC(=O)[C@H](CCCN)N=C(N(C)C)N(C)C)C(C)C)C(=O)N1CCC[C@H]1C(=O)N[C@@H](CCCNC(=N)N)C(=O)N1CCC[C@H]1C(=O)N[C@@H](CCCNC(=N)N)C(=O)N1CCC[C@H]1C(=O)N1CCC[C@H]1C(=O)N[C@@H](Cc1c[nH]cn1)C(=O)N1CCC[C@H]1C(=O)N[C@@H](CCCNC(=N)N)C(=O)N[C@@H](CC(C)C)C(=O)O` [Api 301 (SG)] ({Orn(α-tetramethylguanidino)}-N[Orn]([Gly-Ser])RPVYIPRPRPPHPRL-OH), for which, in series [2], the “MIC in TSB” value amounted to 1.6 µM (≈ 3.9 µg/mL) and the “Effect of peptide linker or remaining linker residues on the MIC” value is given as “does not increase the MIC or increases it only insignificantly”. In series [3], this molecule yielded a share remaining at 4 h, 15 µg/ml of 60%.
`CC[C@H](C)[C@H](NC(=O)[C@H](CCCN)NC(=O)[C@H](CCCNC(=N)N)NC(=O)[C@@H]1CCCN1C(=O)[C@@H]1CCCN1C(=O)[C@H](CCCNC(=N)N)NC(=O)[C@@H]1CCCN1C(=O)[C@H](CCCNC(=N)N)NC(=O)[C@@H]1CCCN1C(=O)[C@H](CC(C)C)NC(=O)[C@H](Cc1ccc(O)cc1)NC(=O)[C@@H]1CCCN1C(=O)[C@@H]1CCCN1C(=O)[C@H](CCCCN)NC(=O)[C@H](CC(=O)O)NC(=O)[C@@H](NC(=O)[C@H](CCCNC(=N)N)NC(=O)[C@H](C)NC(=O)CN)C(C)C)C(=O)N[C@@H](Cc1ccc(O)cc1)C(=O)N[C@@H](CC(N)=O)C(=O)N[C@@H](CCCN)C(N)=O` [GAR-Onc 72, GAR-VDKPPYLPRPRPPROIYNO-NH2] (H-GARVDKPPYLPRPRPPR[Orn]IYN[Orn]-NH2): in series [2], the “MIC in TSB” value stood at 3.1 µM (≈ 8.03 µg/mL) and the “Effect of peptide linker or remaining linker residues on the MIC” value is “does not increase the MIC or increases it only insignificantly”. In series [3], this molecule yielded a share remaining at 4 h, 15 µg/ml of 85%.
For the molecule `CC[C@H](C)[C@H](NC(=O)[C@H](CCCN)NC(=O)[C@H](CCCNC(=N)N)NC(=O)[C@@H]1CCCN1C(=O)[C@@H]1CCCN1C(=O)[C@H](CCCNC(=N)N)NC(=O)[C@@H]1CCCN1C(=O)[C@H](CCCNC(=N)N)NC(=O)[C@@H]1CCCN1C(=O)[C@H](CC(C)C)NC(=O)[C@H](Cc1ccc(O)cc1)NC(=O)[C@@H]1CCCN1C(=O)[C@@H]1CCCN1C(=O)[C@H](CCCCN)NC(=O)[C@H](CC(=O)O)NC(=O)[C@@H](N)C(C)C)C(=O)N[C@@H](Cc1ccc(O)cc1)C(=O)N[C@@H](CC(N)=O)C(=O)N[C@@H](CCCN)C(N)=O` [Onc 72, VDKPPYLPRPRPPROIYNO-NH2] (H-VDKPPYLPRPRPPR[Orn]IYN[Orn]-NH2), the “MIC in TSB/mouse serum” value in series [1] was found to be 1.7 µM. Further, in series [2], the “MIC in TSB” value was determined as 1.7 µM (≈ 3.92 µg/mL).
On to “Guan-ONO(sPEG^750-GARSG)RPVYIPRPRPPHPRL-OH ({Guan″}-[Orn]N[Orn]RPVYIPRPRPPHPRL-OH; not fully specified (residue 3)) [Api 301 (sPEG^750-GARSG)]”, for which the “MIC in TSB/mouse serum” value in series [1] is 0.27 µM. Moreover, the “Half-life (t1/2) in serum” value in series [4] was 45 min. In addition, the “MIC in TSB” value in series [2] worked out at 2.9 µM.
As to “Guan-OO(sPEG^750-GARSG)NRPVYIPRPRPPHPRL-OH (Guan-[Orn][Orn]NRPVYIPRPRPPHPRL-OH; not fully specified (residue 2)) [Api 300 (sPEG^750-GARSG)]”, the “MIC in TSB/mouse serum” value in series [1] turned out to be 0.54 µM. In addition, in series [4], the “Half-life (t1/2) in serum” value was 35 min. Also, the “MIC in TSB” value in series [2] worked out at 2.9 µM.
Regarding “Guan-OO(sPEG^750-GRSG)NRPVYIPRPRPPHPRL-OH (Guan-[Orn][Orn]NRPVYIPRPRPPHPRL-OH; not fully specified (residue 2)) [Api 300 (sPEG^750-GRSG)]”, the “MIC in TSB/mouse serum” value in series [1] worked out at 0.37 µM. Moreover, the “Half-life (t1/2) in serum” value in series [4] is 50 min. In series [2], the “MIC in TSB” value was 2.9 µM.
Regarding “Guan-OO(tPEG^5000-GARSG)NRPVYIPRPRPPHPRL-OH (Guan-[Orn][Orn]NRPVYIPRPRPPHPRL-OH; not fully specified (residue 2)) [Api 300 (tPEG^5000-GARSG)]”, the “MIC in TSB/mouse serum” value in series [1] turned out to be 0.44 µM. Also, the “uncleaved peptide remaining after the indicated time (instead of half-life)” value (shortened to “uncleaved peptide remaining”) in series [4] turned out to be 69%. Besides, the “MIC in TSB” value in series [2] amounted to 17.4 µM.
As for “H-GNNRPVYIPQPRPPHPRL-OH [Apidaecin 1b, reference compound]”, the “MIC in TSB/mouse serum” value in series [1] came out at 1.75 µM. The “MIC in TSB” value in series [2] came out at 0.48 µM.
For the molecule “sPEG^750-GAR-VDKPPYLPRPRPHypRHypTleYNO-NH2 (sPEG750-GARVDKPPYLPRPRP[Hyp]R[Hyp][Tle]YN[Orn]-NH2) [sPEG^750-GAR-Onc 110]”, the “MIC in TSB/mouse serum” value in series [1] is 9.2 µM. Besides, the “uncleaved peptide remaining” value in series [4] was found to be 73%. In addition, the “MIC in TSB” value in series [2] came to 24.3 µM.
For “tPEG^750-GAR-VDKPPYLPRPRPPROIYNO-NH2 (tPEG750-GARVDKPPYLPRPRPPR[Orn]IYN[Orn]-NH2; not fully specified; printed as tPEG^750-GAR-VDKPPYLPRPRPPROIYNO-NH2) [tPEG^750-GAR-Onc 72]”, in series [2], the “MIC in TSB” value was 24.3 µM. The “uncleaved peptide remaining” value in series [3] (pure mouse serum, 6 h) came to 55%.

For orientation: share remaining means the share of the starting amount still present when the sample was taken.
